Experiments:
Assay in all cases: standardised AUC of viability dose-response curve (72 h) (fraction (0-1)); higher = less growth inhibition (more resistant)
KHOS-NP = test system: KHOS-NP
How it was run: (§1)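 Sarcoma cell lines in 384-well plates were treated in triplicate for 72 h with 2.5 µl of a compound dilution series, made in 1:3 steps from 10 mM to 0.0002 mM on the compound plate. ATPLite viability was scaled from 1 (full) to 0 (none) and fitted per drug and cell line with a four-parameter log-logistic model. The values are standardised areas under the dose-response curve in log-dose space, from a modified drexplorer computeAUC. On that scale, 1 means no response and 0 means full response.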

RD-ES = test system: RD-ES
How it was run: as §1

G401 = test system: G401
How it was run: as §1

SW684 = test system: SW684
How it was run: as §1

HT1080 = test system: HT1080
How it was run: as §1

SK-LMS-1 = test system: SK-LMS-1
How it was run: as §1

SW872 = test system: SW872
How it was run: as §1

SK-ES-1 = test system: SK-ES-1
How it was run: as §1

A204 = test system: A204
How it was run: as §1

HS729 = test system: HS729
How it was run: as §1

MES-SA = test system: MES-SA
How it was run: as §1

SW1353 = test system: SW1353
How it was run: as §1

SW982 = test system: SW982
How it was run: as §1

KHOS-240S = test system: KHOS-240S
How it was run: as §1

RD = test system: RD
How it was run: as §1

VA-ES-BJ = test system: VA-ES-BJ
How it was run: as §1

SYO-1 = test system: SYO-1
How it was run: as §1

Compound	standardised AUC (KHOS-NP)	standardised AUC (RD-ES)	standardised AUC (G401)	standardised AUC (SW684)	standardised AUC (HT1080)	standardised AUC (SK-LMS-1)	standardised AUC (SW872)	standardised AUC (SK-ES-1)	standardised AUC (A204)	standardised AUC (HS729)	standardised AUC (MES-SA)	standardised AUC (SW1353)	standardised AUC (SW982)	standardised AUC (KHOS-240S)	standardised AUC (RD)	standardised AUC (VA-ES-BJ)	standardised AUC (SYO-1)
Cc1cc2c(F)c(Oc3ncnn4cc(OC[C@@H](C)O)c(C)c34)ccc2[nH]1 [BRIVANIB]	0.995	0.996	0.994	1	0.996	0.985	1	0.987	0.973	0.989	0.985	0.999	0.995	0.996	0.991	1	0.955
O=C(Nc1nc2cccc(-c3ccc(CN4CCS(=O)(=O)CC4)cc3)n2n1)C1CC1 [FILGOTINIB]	0.991	0.998	0.993	0.994	0.991	0.987	0.979	0.981	0.985	0.906	0.987	0.949	0.993	0.991	0.985	0.96	0.892
CN1CCN(c2ccc(C(=O)Nc3n[nH]c4ccc(Cc5cc(F)cc(F)c5)cc34)c(NC3CCOCC3)c2)CC1 [ENTRECTINIB]	0.973	0.88	0.904	0.927	0.957	0.928	0.893	0.87	0.944	0.915	0.933	0.924	0.885	0.901	0.888	0.957	0.868
CCC(=O)N1CC[C@H](Nc2ncnc3c2CN(c2cnc(OC)c(C(F)(F)F)c2)CC3)C1 [LENIOLISIB]	0.97	0.95	0.929	0.83	0.961	0.927	0.947	0.96	0.929	0.935	0.955	0.934	0.955	0.962	0.988	0.955	0.923
CCN(CC)CCNC(=O)c1c(C)[nH]c(/C=C2\C(=O)Nc3ccc(F)cc32)c1C [SUNITINIB]	0.88	0.755	0.907	0.876	0.864	0.908	0.813	0.716	0.558	0.804	0.829	0.855	0.754	0.815	0.836	0.881	0.648
Cc1[nH]c(/C=C2\C(=O)Nc3ccc(F)cc32)c(C)c1C(=O)NCCN1CCCC1 [TOCERANIB]	0.931	0.778	0.923	0.937	0.908	0.891	0.864	0.795	0.669	0.739	0.82	0.926	0.833	0.841	0.957	0.918	0.632
COCCNc1cc(NC(=O)N2CCCc3cc(CN4CCN(C)CC4=O)c(C=O)nc32)ncc1C#N [ROBLITINIB]	0.994	0.978	0.979	0.994	0.996	0.988	1	0.976	0.963	0.971	0.975	0.995	0.997	0.983	0.992	0.994	0.959
COC(=O)N[C@@H](C)CNc1nccc(-c2cn(C(C)C)nc2-c2cc(Cl)cc(NS(C)(=O)=O)c2F)n1 [ENCORAFENIB]	0.903	0.903	0.922	0.961	0.933	0.887	0.665	0.843	0.922	0.925	0.9	0.941	0.818	0.956	0.896	0.923	0.977
O=c1sn(-c2cccc3ccccc23)c(=O)n1Cc1ccccc1 [TIDEGLUSIB]	0.99	0.985	0.951	0.964	0.999	0.99	0.976	0.975	0.994	0.913	0.971	0.966	0.993	0.983	0.996	0.972	0.962
CC1(C)CC=C(c2nc(C3CC(C)(C)OC(C)(C)C3)ccc2NC(=O)c2nc(C#N)c[nH]2)CC1 [EDICOTINIB]	0.994	0.994	0.987	1	0.984	0.99	1	0.976	0.985	0.931	0.971	1	1	0.987	0.984	0.991	1
CC(C)NC[C@@H](C(=O)N1CCN(c2ncnc3c2[C@H](C)C[C@H]3O)CC1)c1ccc(Cl)cc1 [IPATASERTIB]	0.954	0.848	0.836	0.848	0.969	0.885	0.805	0.851	0.843	0.817	0.781	0.891	0.916	0.921	0.898	0.769	0.791
CCN1C(=O)N(c2c(F)c(OC)cc(OC)c2F)Cc2cnc3[nH]c(CN4CCOCC4)cc3c21 [PEMIGATINIB]	0.991	0.942	0.696	0.951	0.97	0.924	0.946	0.839	0.685	0.748	0.822	0.861	0.889	0.88	0.938	0.951	0.804
C[C@]12O[C@H](C[C@]1(O)CO)n1c3ccccc3c3c4c(c5c6ccccc6n2c5c31)CNC4=O [LESTAURTINIB]	0.762	0.62	0.821	0.805	0.802	0.721	0.655	0.526	0.646	0.762	0.64	0.764	0.614	0.72	0.821	0.667	0.656
N#CCNC(=O)c1ccc(-c2ccnc(Nc3ccc(N4CCOCC4)cc3)n2)cc1 [MOMELOTINIB]	0.979	0.944	0.889	0.907	1	0.941	0.898	0.815	0.829	0.922	0.863	0.893	0.861	0.91	0.994	0.964	0.839
N#CC1(c2ccc(NC(=O)c3cccnc3NCc3ccncc3)cc2)CCCC1 [APATINIB]	0.968	0.98	0.956	0.987	0.991	0.982	0.98	0.988	0.821	0.942	0.972	0.965	0.998	0.966	0.996	1	0.893
COC(=O)[C@@]1(O)C[C@H]2O[C@]1(C)n1c3ccccc3c3c4c(c5c6ccccc6n2c5c31)C(=O)NC4 [K-252A]	0.776	0.647	0.745	0.774	0.818	0.666	0.68	0.543	0.617	0.756	0.631	0.766	0.628	0.717	0.81	0.7	0.668
COc1cc(Nc2ncc(F)c(Nc3ccc4c(n3)N(COP(=O)(O)O)C(=O)C(C)(C)O4)n2)cc(OC)c1OC [FOSTAMATINIB]	0.911	0.857	0.842	0.886	0.968	0.854	0.803	0.757	0.774	0.871	0.885	0.819	0.755	0.798	0.906	0.845	0.779
O=S(=O)(c1cccc2cnccc12)N1CCCNCC1 [FASUDIL]	0.994	1	1	0.978	0.997	0.986	0.992	1	0.981	0.982	0.993	0.981	0.991	0.982	1	0.996	0.997
Cn1cc(C2=C(c3cn(C4CCN(Cc5ccccn5)CC4)c4ccccc34)C(=O)NC2=O)c2ccccc21 [ENZASTAURIN]	0.992	1	1	0.961	1	0.953	0.973	0.986	0.979	0.995	0.988	0.943	0.961	0.978	0.995	1	0.965
Cn1ncnc1[C@H]1c2n[nH]c(=O)c3cc(F)cc(c23)N[C@@H]1c1ccc(F)cc1 [TALAZOPARIB]	0.919	0.433	0.817	0.956	0.83	0.905	0.826	0.376	0.79	0.936	0.675	0.836	0.749	0.86	0.832	0.725	0.48
CC[C@@H]1CN(C(=O)NCC(F)(F)F)C[C@@H]1c1cnc2cnc3[nH]ccc3n12 [UPADACITINIB]	0.975	0.994	0.961	0.984	0.976	0.974	0.951	0.988	0.97	0.915	0.977	0.945	0.979	0.956	0.993	0.962	0.913
Clc1ccc(Nc2nnc(Cc3ccncc3)c3ccccc23)cc1 [VATALANIB]	1	0.99	0.971	0.988	1	0.975	0.994	0.998	0.864	0.989	0.998	0.979	0.997	0.978	0.995	1	0.937
Cc1cccc(-c2nn3c(c2-c2ccnc4ccc(C(N)=O)cc24)CCC3)n1 [GALUNISERTIB]	0.956	0.972	0.993	0.992	0.982	0.974	0.962	0.968	0.976	0.91	0.969	0.976	0.992	0.955	0.998	1	0.853
O=C1NC(=O)[C@@H](c2cn3c4c(cccc24)CCC3)[C@@H]1c1c[nH]c2ccccc12 [TIVANTINIB]	0.867	0.768	0.865	0.883	0.796	0.79	0.859	0.718	0.844	0.896	0.754	0.879	0.792	0.782	0.789	0.829	0.804
CC(C)(O)CNc1nc(Nc2ccnc(C(F)(F)F)c2)nc(-c2cccc(C(F)(F)F)n2)n1 [ENASIDENIB]	0.981	0.992	0.992	0.973	0.999	0.998	0.998	0.945	0.972	0.997	0.99	0.99	1	0.995	0.984	0.991	0.958
